Laboratory results from US10004762B2, “Dialysis formulation” (Gambro Lundia AB, priority 2013, dated 2018).
Read-outs that look alike come from different tables or passages of the source.

Legend:
[1] = in vivo
[2] = in vivo; remark: listed apart in the source
[3] = human, in vivo
Protocol: (§1) Trace element concentrations have been analyzed in effluent obtained from hemodialysis (HD) patients at the end of their dialysis session.
(§2) In the study participated 47 hemodialysis patients. […] All patients received dialysis 3-5 h, 3-4 times per week. Whole blood and plasma samples for trace element analysis were obtained pre- and post-midweek dialysis treatment in 6 ml trace element-free EDTA tubes (BD Vaccutainer®, Stockholm, Sweden). In addition effluent samples were taken post-treatment in 50 ml trace element-free tubes.
(§3) Analysis of all trace elements was performed by inductively coupled plasma-mass spectrometry (ICP-MS; Thermo X7, Thermo Elemental, Winsford, UK). For plasma and blood a sample volume of 250 μL was diluted 10 times with an alkaline solution according to Bárány et al. The effluent was analysed in acidic condition, i.e. concentrated nitric acid (HNO3) was added to the samples to a final concentration of 2%. Using the dilute solution or 2% HNO3 as a carrier/rinsing fluid, the samples were introduced in a segment-flow mode.

[4] = human, in vivo; remark: listed apart in the source
Protocol: (§4) In the study participated 47 hemodialysis patients. These 47 hemodialysis patients (34 female and 13 male), were divided into 30 non-diabetic and 17 with diabetes mellitus, with an average age of 67 (Table 1). All patients received dialysis 3-5 h, 3-4 times per week. Whole blood and plasma samples for trace element analysis were obtained pre- and post-midweek dialysis treatment in 6 ml trace element-free EDTA tubes (BD Vaccutainer®, Stockholm, Sweden). […] In addition, the same samples were taken at one occasion from a healthy control group. The control group included 51 persons (20 female and 31 male), with an average age of 22.
as §3

[5] = Loss of trace elements during hemodialysis (HD) treatment (FIG. 5C-5E); settings: HD patients (chronic dialysis treatment), 4 hours of HD
[6] = Trace element concentrations in effluent of hemodialysis patients (ICP-MS); settings: effluent from HD patients at the end of dialysis session
Protocol: as §1, §2, §3

[7] = Loss of trace elements during 24 h CRRT treatment (FIG. 5A-5B); settings: patients with CRRT (acute dialysis treatment)
[8] = Trace element analysis in plasma and whole blood of HD patients and healthy controls (ICP-MS); settings: for P2 plasma sample post-dialysis ± SEM / P1 plasma sample pre-dialysis ± SEM / B2 whole blood sample post-dialysis ± SEM / B1 whole blood sample pre-dialysis ± SEM: all HD patients; for P control ± SEM / B control ± SEM: healthy controls; for B2 whole blood sample post-dialysis ± SEM / B1 whole blood sample pre-dialysis ± SEM / B control ± SEM: whole blood; for increase of concentration during dialysis: plasma and whole blood, HD patients (FIG. 2)
Protocol: as §4, §3

Row | Molecule | actual loss during 24 hours of CRRT [1] | actual loss / removal during HD treatment [2] | Effluent concentration ± SD [6] [µM] | actual loss during 24 hours of CRRT [7] | P2 plasma sample post-dialysis ± SEM ([8]; plasma) [µg/L] | P1 plasma sample pre-dialysis ± SEM ([8]; plasma) [µg/L] | B2 whole blood sample post-dialysis ± SEM [8] [µg/L] | B1 whole blood sample pre-dialysis ± SEM [8] [µg/L] | P control ± SEM ([8]; plasma) [µg/L] | B control ± SEM [8] [µg/L] | Effluent concentration ± SD [3] [µM] | B1 whole blood sample pre-dialysis ± SEM [4] [µg/L] | B2 whole blood sample post-dialysis ± SEM [4] [µg/L] | B control ± SEM [4] [µg/L] | P1 plasma sample pre-dialysis ± SEM [4] [µg/L] | P2 plasma sample post-dialysis ± SEM [4] [µg/L] | also measured
1 | [Se] [Selenium] | significant loss | significant removal of selenium in most patients | – | – | – | – | – | – | – | – | – | – | – | – | – | – | Effluent concentration ± SD ([3]; both): 0.01 ± 0.005 µM; B1 whole blood sample pre-dialysis ± SEM ([4]; both): 66 ± 2 µg/L; B2 whole blood sample post-dialysis ± SEM ([4]; both): 68 ± 2 µg/L; B control ± SEM ([4]; both): 102 ± 3 µg/L; P1 plasma sample pre-dialysis ± SEM ([4]; both): 53 ± 2 µg/L; P2 plasma sample post-dialysis ± SEM ([4]; both): 55 ± 2 µg/L; P control ± SEM ([4]; both): 81 ± 1.9 µg/L
2 | [Mn+2] [Manganese] | – | – | 0.005 ± 0.005 | significant loss | 3.4 ± 0.9 | 0.8 ± 0.03 | 19.3 ± 1.4 | 17 ± 1.3 | 0.7 ± 0.02 | 9.2 ± 0.4 | – | – | – | – | – | – | actual loss / removal during HD treatment [5]: no manganese removal at all but rather an uptake; B1 whole blood sample pre-dialysis ± SEM ([8]; listed as Mn): 17.0 ± 1.1 µg/L; blood concentration post-dialysis ([8]; diabetic HD patients): 20 ± 2.7 ng/mL; blood concentration pre-dialysis ([8]; diabetic HD patients): 17 ± 2.1 ng/mL; B control ± SEM ([8]; listed as Mn): 9.2 ± 0.4 µg/L; blood concentration post-dialysis ([8]; non-diabetic HD patients): 19 ± 1.4 ng/mL; blood concentration pre-dialysis ([8]; non-diabetic HD patients): 17 ± 1.3 ng/mL
3 | [Cu] [Copper] | significant loss | removal of those trace elements in a majority of the patients | – | – | – | – | – | – | – | – | 0.026 ± 0.015 | 855 ± 18 | 882 ± 17 | 861 ± 27 | 1113 ± 33 | 1178 ± 29 | increase of concentration during dialysis [4]: ~4%; plasma concentration [4]: 1173 ± 56 ng/mL
4 | [Rb] [Rubidium] | large loss | significant removal of rubidium in a majority of the patients | – | – | – | – | – | – | – | – | 0.31 ± 0.17 | 972 ± 30 | 974 ± 30 | 1966 ± 51 | 187 ± 5 | 150 ± 4 | P control ± SEM [4]: 271 ± 5 µg/L; decrease of plasma concentration during dialysis [4]: ~20%
5 | [Cr] [Chromium] | – | – | 0.0043 ± 0.008 | significant loss | 5.2 ± 0.6 | 3.3 ± 0.3 | 3.4 ± 0.4 | 2.1 ± 0.2 | 0.3 ± 0.02 | 0.3 ± 0.02 | – | – | – | – | – | – | P1 plasma sample pre-dialysis ± SEM ([8]; plasma, listed as Cr): 3.3 ± 0.3 µg/L; plasma concentration post-dialysis ([8]; diabetic HD patients): 2.5 ± 0.4 ng/mL; P control ± SEM ([8]; plasma, listed as Cr): 0.3 ± 0.02 µg/L; plasma concentration post-dialysis ([8]; non-diabetic HD patients): 3.8 ± 0.4 ng/mL; increase of concentration during dialysis [8]: up to 60%
6 | [Mo] [Molybdenum] | significant loss | – | – | – | – | – | – | – | – | – | 0.003 ± 0.002 | 2.0 ± 0.2 | 1.0 ± 0.1 | 0.6 ± 0.1 | 2.6 ± 0.2 | 1.3 ± 0.1 | P control ± SEM [4]: 0.8 ± 0.1 µg/L; decrease of concentration during dialysis [4]: ~50%; plasma concentration post-dialysis [4]: 1.2 ± 0.2 ng/mL; plasma concentration pre-dialysis [4]: 3.1 ± 0.4 ng/mL; reduction of plasma concentration during dialysis [4]: 50%
7 | Zinc | – | – | 0.017 ± 0.01 | some subjects show a uptake of zinc (negative loss) while others show loss of zinc | 685 ± 17 | 644 ± 13 | 5842 ± 131 | 5610 ± 138 | 719 ± 17 | 5189 ± 124 | – | – | – | – | – | – | actual loss / removal during HD treatment [5]: removal of those trace elements in a majority of the patients; B1 whole blood sample pre-dialysis ± SEM ([8]; listed as Zn): 5610 ± 138 µg/L; B control ± SEM ([8]; listed as Zn): 5189 ± 124 µg/L; increase of concentration during dialysis [8]: ~5%
8 | Cobalt | – | – | 0.0015 ± 0.002 | significant loss | 0.6 ± 0.1 | 0.6 ± 0.03 | 0.5 ± 0.03 | 0.5 ± 0.02 | 0.4 ± 0.02 | 0.3 ± 0.01 | – | – | – | – | – | – | P1 plasma sample pre-dialysis ± SEM ([8]; plasma, listed as Co): 0.6 ± 0.03 µg/L; P control ± SEM ([8]; plasma, listed as Co): 0.4 ± 0.02 µg/L; increase in plasma concentration during dialysis ([8]; plasma, diabetic and non-diabetic HD patients): ~15%
